Data reported in paper PMC12655172, “Borylated 5-Membered Ring Iminosugars: Synthesis and Biological Evaluation for Glycosidase Inhibition and Anticancer Properties for Application in Boron Neutron Capture Therapy (BNCT)—Part 2” (Pharmaceuticals, 2025).
Values joined by “and” are separate entries in the source; they are usually repeats but may differ in a detail not shown here. Equal values may be shown once.

What was measured:
[1] = test system: T1, trehalase (porcine kidney); assay: Glycosidase inhibition (Table 2 panel); assay type: biochemical
T1 construct: purchased Sigma-Aldrich; host or cells: porcine kidney
Description: (§1) The enzymes α-D-glucosidase (yeast), β-D-glucosidases (almond, bovine liver), α-D-galactosidase (coffee beans), β-D-galactosidase (bovine liver), α-D-mannosidase (Jack bean), β-D-mannosidase (snail), α-L-rhamnosidase (P. decumbens), α-L-fucosidase (bovine kidney), trehalase (porcine kidney), β-D-glucuronidases (E. coli, bovine liver), amyloglucosidase (A. niger), para-nitrophenyl glycosides, and various disaccharides were purchased from Sigma-Aldrich Co (St. Louis, MO, USA).
(§2) Brush border membranes were prepared from the rat small intestine according to the method of Kessler et al., and were assayed at pH 6.8 for rat intestinal maltase using maltose. For rat intestinal maltase, porcine kidney trehalase, and A. niger amyloglucosidase activities, the reaction mixture contained maltose ([…]) and the appropriate amount of enzyme, and the incubations were performed for 10–30 min at 37 °C. The reaction was stopped by heating at 100 °C for 3 min. After centrifugation (600 g; 10 min), the resulting reaction mixture was added to the Glucose CII-test Wako (Wako Pure Chemical Ind., Osaka, Japan). The absorbance at 505 nm was measured to determine the amount of the released D-glucose. Other glycosidase activities were determined using an appropriate para-nitrophenyl glycoside as substrate at the optimum pH of each enzyme. The reaction mixture contained the substrate ([…]) and the appropriate amount of enzyme. The reaction was stopped by the addition of Na2CO3 ([…]). The released para-nitrophenol was measured spectrometrically at 400 nm. All reactions were run in […].

[2] = test system: T2, α-D-galactosidase (coffee beans); assay: Glycosidase inhibition (Table 2 panel); assay type: biochemical
T2 construct: purchased Sigma-Aldrich; host or cells: coffee beans
Description: as §1, §2

[3] = test system: α-D-glucosidase (human lysosome); assay: Glycosidase inhibition (Table 2 panel); assay type: biochemical; conditions: at 100 μM
Description: as §1, §2

[4] = test system: α-D-glucosidase (rat intestinal maltase); assay: Glycosidase inhibition (Table 2 panel); assay type: biochemical
Description: as §1, §2

α-D-glucosidase (rice) = α-D-glucosidase (rice) (Oryza sativa subsp. japonica, UniProt Q653V7); assay: Glycosidase inhibition (Table 2 panel); assay type: biochemical
Description: as §1, §2

[5] = test system: T3, α-D-mannosidase (Jack bean); assay: Glycosidase inhibition (Table 2 panel); assay type: biochemical
T3 construct: purchased Sigma-Aldrich; host or cells: Jack bean
Description: as §1, §2

[6] = test system: T4, α-L-fucosidase (bovine kidney); assay: Glycosidase inhibition (Table 2 panel); assay type: biochemical; conditions: at 1000 μM
T4 construct: purchased Sigma-Aldrich; host or cells: bovine kidney
Description: as §1, §2

[7] = test system: α-L-rhamnosidase (P. decumbens); assay: Glycosidase inhibition (Table 2 panel); assay type: biochemical
Description: as §1, §2

[8] = molecular target: T5, β-D-galactosidase (bovine liver) (Bos taurus, UniProt F1MNT6); assay: Glycosidase inhibition (Table 2 panel); assay type: biochemical
T5 sequence (F1MNT6 1-469): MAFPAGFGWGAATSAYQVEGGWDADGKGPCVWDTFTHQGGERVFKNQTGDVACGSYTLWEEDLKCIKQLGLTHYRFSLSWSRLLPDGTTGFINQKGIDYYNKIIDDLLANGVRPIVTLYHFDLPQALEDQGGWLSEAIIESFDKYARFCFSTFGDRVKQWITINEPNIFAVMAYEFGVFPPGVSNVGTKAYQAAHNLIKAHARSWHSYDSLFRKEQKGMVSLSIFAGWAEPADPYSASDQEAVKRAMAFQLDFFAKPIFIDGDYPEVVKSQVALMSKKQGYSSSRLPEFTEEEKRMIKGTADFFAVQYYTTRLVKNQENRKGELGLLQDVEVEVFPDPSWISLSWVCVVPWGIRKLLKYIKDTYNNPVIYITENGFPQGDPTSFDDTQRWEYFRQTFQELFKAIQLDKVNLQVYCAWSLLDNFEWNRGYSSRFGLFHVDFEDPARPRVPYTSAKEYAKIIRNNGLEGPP
Description: as §1, §2

β-D-glucosidase (almond) = assay: Glycosidase inhibition (Table 2 panel); assay type: biochemical
Description: as §1, §2

[9] = molecular target: T6, β-D-glucosidase (bovine liver) (Bos taurus, UniProt F1MNT6); assay: Glycosidase inhibition (Table 2 panel); assay type: biochemical
T6 sequence (F1MNT6 1-469): T5 sequence (F1MNT6 1-469)
Description: as §1, §2

[10] = test system: β-D-glucuronidase (bovine liver); assay: Glycosidase inhibition (Table 2 panel); assay type: biochemical
Description: as §1, §2

β-D-mannosidase (snail) = assay: Glycosidase inhibition (Table 2 panel); assay type: biochemical
Description: as §1, §2

[11] = test system: β-D-glucosidase (human lysosome); assay: Glycosidase inhibition (Table 2 panel); assay type: biochemical; conditions: at 100 μM
[12] = test system: β-D-galactosidase (E. coli); assay: Glycosidase inhibition (Table 2 panel); assay type: biochemical; conditions: at 100 μM
[13] = test system: β-D-glucanase (T. Longibrachiatum); assay: Glycosidase inhibition (Table 2 panel); assay type: biochemical; conditions: at 100 μM
[14] = test system: N-acetyl-β-D-hexosaminidase (rat intestine); assay: Glycosidase inhibition (Table 3 panel); assay type: biochemical; conditions: 1 mg/mL aqueous solution; run in water
Protocol: (§3) All enzymes and para-nitrophenyl substrates were purchased from Sigma. Enzymes were assayed at 27 °C in citric acid (0.1 M)/disodium hydrogen phosphate (0.2 M) buffers at the optimum pH for the enzyme. The incubation mixture consisted of […] of 1 mg/mL aqueous solution of extract and […] of the appropriate […] para-nitrophenyl substrate made up in buffer at the optimum pH for the enzyme. The reactions were stopped by addition of […] 0.4 M glycine (pH 10.4) during the exponential phase of the reaction, which had been determined at the beginning using uninhibited assays in which water replaced the inhibitor. Final absorbances were read at 405 nm using a Versamax microplate reader (Molecular Devices, Wokingham, UK). Assays were carried out in triplicate, and the values given are means of the three replicates per assay. All reactions were run in water.

[15] = test system: α-D-glucosidase (rat intestine); assay: Glycosidase inhibition (Table 3 panel); assay type: biochemical; conditions: 1 mg/mL aqueous solution; run in water
Protocol: as §3

[16] = test system: MCF10A (non-tumour derived normal breast cell line); assay: Cancer screening, MTT growth inhibition; assay type: cell-based; conditions: Homo sapiens, MCF-10A, 72 h; for inhibition at 25 µM: 25 µM of drug, read-out: DOSE SCREEN percentage (%) cell growth inhibition MCF10A Breast (normal); for GI50: read-out: DOSE RESPONSE GI50 MCF10A Breast (normal)

α-D-glucosidase (rice), sequence (Q653V7 34-885): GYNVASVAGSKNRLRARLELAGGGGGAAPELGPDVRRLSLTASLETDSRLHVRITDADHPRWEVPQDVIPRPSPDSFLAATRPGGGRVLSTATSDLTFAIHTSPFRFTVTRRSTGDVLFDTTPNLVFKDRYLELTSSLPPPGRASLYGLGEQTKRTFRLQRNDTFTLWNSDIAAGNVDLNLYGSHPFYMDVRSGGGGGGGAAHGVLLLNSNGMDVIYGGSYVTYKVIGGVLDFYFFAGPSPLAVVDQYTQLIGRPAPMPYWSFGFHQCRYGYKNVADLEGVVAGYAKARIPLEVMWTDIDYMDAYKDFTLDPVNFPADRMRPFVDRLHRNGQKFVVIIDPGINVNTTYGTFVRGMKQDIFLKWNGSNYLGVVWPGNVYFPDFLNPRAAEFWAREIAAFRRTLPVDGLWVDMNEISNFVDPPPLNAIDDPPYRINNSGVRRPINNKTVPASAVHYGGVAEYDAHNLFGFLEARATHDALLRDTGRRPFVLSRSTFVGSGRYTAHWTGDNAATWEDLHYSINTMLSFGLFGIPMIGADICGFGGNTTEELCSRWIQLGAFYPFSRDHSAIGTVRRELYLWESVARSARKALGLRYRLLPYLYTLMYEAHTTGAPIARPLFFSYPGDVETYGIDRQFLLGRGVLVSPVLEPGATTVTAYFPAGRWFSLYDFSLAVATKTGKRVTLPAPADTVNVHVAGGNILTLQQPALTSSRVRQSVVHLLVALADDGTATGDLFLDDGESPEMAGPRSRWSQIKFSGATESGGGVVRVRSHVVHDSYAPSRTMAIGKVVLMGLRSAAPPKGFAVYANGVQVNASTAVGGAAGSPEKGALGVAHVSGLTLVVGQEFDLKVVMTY

Structure (SMILES)	inhibition % Trehalase Porcine Kidney ([1]; at 100 μM)	inhibition % Trehalase Porcine Kidney ([1]; at 1000 μM)	inhibition % α-D-Galactosidase Coffee Beans ([2]; at 100 μM)	inhibition % α-D-Galactosidase Coffee Beans ([2]; at 1000 μM)	inhibition % α-D-Glucosidase Human Lysosome [3]	inhibition % α-D-Glucosidase Rat Intestinal Maltase ([4]; at 100 μM)	inhibition % α-D-Glucosidase Rat Intestinal Maltase ([4]; at 1000 μM)	inhibition at 100 µM (α-D-glucosidase (rice))	inhibition at 1000 µM (α-D-glucosidase (rice))	inhibition % α-D-Mannosidase Jack Bean ([5]; at 100 μM)	inhibition % α-D-Mannosidase Jack Bean ([5]; at 1000 μM)	inhibition % α-L-Fucosidase Bovine Kidney [6]	inhibition % α-L-Rhamnosidase P. decumbens ([7]; at 100 μM)	inhibition % α-L-Rhamnosidase P. decumbens ([7]; at 1000 μM)	inhibition % β-D-Glucosidase Almond (β-D-glucosidase (almond); at 100 μM)	inhibition % β-D-Glucosidase Almond (β-D-glucosidase (almond); at 1000 μM)	inhibition at 100 µM [9]	inhibition % β-D-Glucuronidase Bovine Liver ([10]; at 100 μM)	inhibition % β-D-Glucuronidase Bovine Liver ([10]; at 1000 μM)	inhibition % β-D-Mannosidase Snail (β-D-mannosidase (snail); at 100 μM)	also measured
CC1(C)O[C@H]2O[C@H]3[C@@H]([C@H]2O1)N(Cc1cccc(B2OC(C)(C)C(C)(C)O2)c1)C[C@H]3O [meta 2, N-(3-Methylphenylboronic acid pinacol ester)-3,6-dideoxy-3,6-imino-1,2-O-isopropylidene-α-D-gulofuranose]	^cNI ^d(0%)	^aNI ^b(5.8%)	^cNI ^d(0%)	^aNI ^b(0%)	^cNI ^d(3.9%)	^cNI ^d(5.8%)	^aNI ^b(12.4%)	0%	2.9%	^cNI ^d(7.5%)	^aNI ^b(0%)	^aNI ^b(3.8%)	^cNI ^d(1.5%)	^aNI ^b(0%)	^cNI ^d(6.8%)	^aNI ^b(12.6%)	0%	^cNI ^d(1.4%)	^aNI ^b(10.7%)	^cNI ^d(8.4%)	inhibition at 100 µM ([8]; at 100 μM): 2.2%; inhibition at 1000 µM ([8]; at 1000 μM): 41.8%; inhibition at 1000 µM ([9]; at 1000 μM): 32.7%; inhibition % β-D-Mannosidase Snail (β-D-mannosidase (snail); at 1000 μM): ^aNI ^b(3.7%); inhibition % β-D-Glucosidase Human Lysosome [11]: ^cNI ^d(0%); inhibition % β-D-Galactosidase E. coli [12]: ^cNI ^d(0%); inhibition % β-D-Glucanase T. Longibrachiatum [13]: ^cNI ^d(3.9%); Percentage inhibition N-Acetyl-β-D-Hexosaminidase Rat Intestine [14]: 11.5%; Percentage inhibition α-D-Glucosidase Rat Intestine [15]: 16.8%; inhibition at 25 µM [16]: 6 ± 4%; GI50 [16]: > 50 µM
OB(O)c1cccc(CN2C[C@@H](O)[C@H]3OC(O)[C@H](O)[C@H]32)c1 (stereo partly drawn) [meta 3, N-(3-Methylphenylboronic acid)-3,6-dideoxy-3,6-imino-D-gulofuranose]	^cNI ^d(20.9%)	^aNI ^b(0%)	^cNI ^d(0%)	^aNI ^b(0.7%)	^cNI ^d(3.5%)	^cNI ^d(12.3%)	^aNI ^b(2.0%)	0%	5.9%	^cNI ^d(0%)	^aNI ^b(0%)	^aNI ^b(3.8%)	^cNI ^d(1.2%)	^aNI ^b(3.2%)	^cNI ^d(24.8%)	^aNI ^b(45.8%)	8.2%	^cNI ^d(1.2%)	^aNI ^b(7.2%)	^cNI ^d(0%)	inhibition % β-D-Mannosidase Snail (β-D-mannosidase (snail); at 1000 μM): ^aNI ^b(0%); inhibition % β-D-Glucosidase Human Lysosome [11]: ^cNI ^d(6.6%); inhibition % β-D-Galactosidase E. coli [12]: ^cNI ^d(0.2%); inhibition % β-D-Glucanase T. Longibrachiatum [13]: ^cNI ^d(0%); Percentage inhibition N-Acetyl-β-D-Hexosaminidase Rat Intestine [14]: 8.7%; Percentage inhibition α-D-Glucosidase Rat Intestine [15]: 12.1% and 8.9%; inhibition at 25 µM [16]: 6 ± 4%; GI50 [16]: > 50 µM
